Legend:
ALK [WT] = ALK [WT] (Homo sapiens, UniProt Q9UM73); test: Kinase inhibition assay, ALK [WT]; assay type: biochemical
Experimental: (§1) Compound preparation: The test compounds were dissolved in DMSO to make 20 mM stock solutions. The compounds were diluted in DMSO to 0.1 mM (a dilution with 100 times the final concentration) before use, and a 3-fold series gradient dilution with 11 concentrations was made. Dilutions with 4 times of the final concentration were prepared by diluting with buffer when dosing.
(§2) Kinase assay: after preparing the buffer solution, the enzyme was mixed with pre-diluted compounds with different concentrations, and placed at room temperature for 30 minutes in duplicate. The corresponding substrate and ATP were added thereto and reacted at room temperature for 60 minutes (both a negative and a positive control were set). After the reaction, antibody was added for detection, and after incubation at room temperature for 60 minutes, Evnvision detection was carried out, and data was collected. Data was analyzed and fit according to XLfit5 software. IC50 was calculated by the following formula: (IC50=[(ABS test−ABS begin)/(ABS control−ABS begin)]×100).

BaF3 [EML4-ALK] [1] = test: Cytotoxicity test (CellTiter-Glo), BaF3 [EML4-ALK]; assay type: cell-based; settings: Ba/F3 cells
Experimental: (§3) The in vitro anti-proliferative activity of the compounds of the present disclosure against three types of cells that are cultured in vitro was tested by CellTiter-Glo method.
(§4) Cell lines: BaF3 parental; BaF3 [EML4-ALK] (From WuXi PharmaTech) and BaF3 [EMF4-AFK F1196M] (From WuXi PharmaTech); wherein, BaF3 parental was cultured in RPMI1640 medium containing 10 ng/ml IL-3, 10% fetal bovine serum, 100 U/ml penicillin, and 100 μg/ml streptomycin, BaF3 [EMF4-AFK] and BaF3 [EMF4-AFK F1196M] were cultured in RPMI1640 medium containing 10% fetal bovine serum, 100 U/ml penicillin, and 100 μg/ml streptomycin.
(§5) Reagents and materials: RPMI-1640 (GIBCO, Cat. No. A10491-01); fetal bovine serum (GIBCO, Cat. No. 10099141); 0.25% trypsin-EDTA (GIBCO, Cat. No. 25200); penicillin-streptomycin, liquid (GIBCO, Cat. No. 15140-122); DMSO (Sigma, Cat. No. D2650); CellTiter-Glo Test Kit (Promega, Cat. No. G7572), and 96-well plate (Corning, Cat. No. 3365).
(§6) 1. The test compounds were dissolved in DMSO to make stock solutions and subjected to a series gradient dilution to give solutions with 10-fold working concentration.
(§7) 2. The cells in the logarithmic growth phase were diluted with the culture solution to adjust to the specific cell concentration, 90 μi of cell suspension was added to the 96-well plate to make the cell density reach the specified concentration. The plate was incubated in a incubator at 37° C., containing 5% carbon dioxide gas overnight.
(§8) 3. 10 μl drug solutions were added to each well of the 96-well plate inoculated with cells. 10 concentrations of the compounds were tested starting from the highest concentration of 20 μM with a 3-fold series gradient dilution in duplicate.
(§9) 4. After continuously cultured for 72 hours, the cells were detected by CellTiter-Glo for the cell viability. The dose-effect curve was made using GraphPad Prism software and IC50 was calculated.

BaF3 [EML4-ALK] [2] = target: T1, BaF3 [EML4-ALK] (Homo sapiens, UniProt Q9UM73); test: Cytotoxicity test (CellTiter-Glo), BaF3 [EML4-ALK]; assay type: cell-based; settings: 72 hours, CellTiter-Glo; read-out: IC50(nM) ALK (Ba/F3)
T1 construct: IC50(nM) ALK (Ba/F3); other: 72 hours, CellTiter-Glo; BaF3 [EML4-ALK]; fused on or other part: Q9HC35 (Echinoderm microtubule-associated protein-like 4)
Experimental: as §3, §4, §5, §6, §7, §8, §9

ALK[L1196M] (Ba/F3) [3] = target: T2, ALK[L1196M] (Ba/F3) (Homo sapiens, UniProt Q9UM73, L1196M, cells depend on it); test: Cytotoxicity test (CellTiter-Glo), BaF3 EML4-ALK L1196M; assay type: cell-based; settings: 72 hours, CellTiter-Glo; read-out: IC50(nM) ALK[L1196M] (Ba/F3)
T2 construct: IC50(nM) ALK[L1196M]; (Ba/F3); other: 72 hours, CellTiter-Glo; BaF3 [EMF4-AFK F1196M]; fused on or other part: Q9HC35 (Echinoderm microtubule-associated protein-like 4)
Experimental: as §3, §4, §5, §6, §7, §8, §9

ALK[L1196M] (Ba/F3) [4] = test: as above; assay type: cell-based; settings: Ba/F3 cells
Experimental: as §3, §4, §5, §6, §7, §8, §9

ALK [L1196M] = ALK [L1196M] (Homo sapiens, UniProt Q9UM73, L1196M); test: Kinase inhibition assay, ALK [L1196M]; assay type: biochemical
Experimental: as §1, §2

[5] = Metabolic stability in human liver microsomes; assay type: in vitro ADME; settings: pH 7.4, 1 μM compound, 0.5 mg/mL protein; for microsomal CLint at 1 μM: read-out: CLint (uL/min/mg), Human liver microsome experiment; for half-life at 1 μM: read-out: t1/2 (min), Human liver microsome experiment
Experimental: (§10) Experiments in microsomes: Human liver microsomes: 0.5 mg/mL, Xenotech; Rat liver microsomes: 0.5 mg/mL, Xenotech; Coenzyme (NADPH/NADH): 1 mM, Sigma Life Science; Magnesium chloride: 5 mM, 100 mM phosphate buffer (pH 7.4).
(§11) Preparation of stock solution: Powder of the example compounds was accurately weighed and dissolved in DMSO to 5 mM. Preparation of phosphate buffer (100 mM, pH7.4): A pre-formulated 0.5M potassium dihydrogen phosphate (150 mL) was mixed with 0.5M dibasic potassium phosphate (700 mL). The pH of the mixture was adjusted to 7.4 with 0.5M dibasic potassium phosphate solution. The mixture was diluted 5-fold with ultrapure water before use, and magnesium chloride was added to obtain a phosphate buffer (100 mM) containing 100 mM potassium phosphate, 3.3 mM magnesium chloride, pH7.4. A NADPH regeneration system solution (containing 6.5 mM NADP, 16.5 mM G-6-P, 3 U/mL G-6-PD, 3.3 mM magnesium chloride) was prepared and placed on wet ice prior to use. Preparation of stop solution: acetonitrile solution containing 50 ng/mL propranolol hydrochloride and 200 ng/mL tolbutamide (internal standard). 25057.5 μL of phosphate buffer (pH 7.4) was taken into a 50 mL centrifuge tube, to which 812.5 μL human liver microsomes were added, and mixed to obtain a liver microsome dilution solution with a protein concentration of 0.625 mg/mL. 25057.5 μL of phosphate buffer (pH 7.4) was taken into a 50 mL centrifuge tube, to which 812.5 μL SD rat liver microsomes were added, and mixed to obtain a liver microsome dilution solution with a protein concentration of 0.625 mg/mL.
(§12) Incubation of the samples: The stock solution of the respective compound was respectively diluted to 0.25 mM with an aqueous solution containing 70% acetonitrile, and used as a working solution, ready for use. 398 μL of the dilution solution of human liver microsomes or rat liver microsome were added to a 96-well incubation plate (N=2), respectively, and 2 μL of 0.25 mM working solution was added and mixed.
(§13) Metabolic stability assay: 300 μL of pre-chilled stop solution was added to each well of a 96-well deep well plate and placed on ice as a stop plate. The 96 well incubation plate and NADPH regeneration system were placed in a 37° C. water bath box, shaken at 100 rpm and pre-incubated for 5 min. 80 μL of incubation solution was taken out from each well of the incubation plate and added to the stop plate, mixed, and replenished with 20 μL of NADPH regeneration system solution as a 0-min sample. 80 μL of NADPH regeneration system solution was added to each well of the incubation plate to start the reaction and start counting. […] Separately, 100 μL of the reaction solution was taken at 10, 30, and 90 min reaction, respectively, added to a stop plate, and vortexed for 3 minutes to terminate the reaction. The stop plate was centrifuged at 5000×g at 4° C. for 4 min. 100 μL of the supernatant was added to a 96-well plate to which 100 μL of distilled water was previously added, mixed, and analyzed by LC-MS/MS.
(§14) Data analysis: The peak areas of the corresponding compound and internal standard were detected by LC-MS/MS system, and the ratio of the peak area of the compound to the internal standard was calculated.

BaF3 parental = test: Cytotoxicity test (CellTiter-Glo), BaF3 parental; assay type: cell-based; settings: Mus musculus, 72 hours, read-out: IC50(nM) parental (Ba/F3)
Experimental: as §3, §4, §5, §6, §7, §8, §9

[6] = Metabolic stability in rat liver microsomes; assay type: in vitro ADME; settings: SD, pH 7.4, 1 μM compound, 0.5 mg/mL protein; for microsomal CLint at 1 μM: read-out: CLint (uL/min/mg), Rat liver microsome experiment; for half-life at 1 μM: read-out: t1/2 (min), Rat liver microsome experiment
Experimental: as §10, §11, §12, §13, §14

T2 sequence (Q9UM73 whole entry L1196M, the tested form may be a part): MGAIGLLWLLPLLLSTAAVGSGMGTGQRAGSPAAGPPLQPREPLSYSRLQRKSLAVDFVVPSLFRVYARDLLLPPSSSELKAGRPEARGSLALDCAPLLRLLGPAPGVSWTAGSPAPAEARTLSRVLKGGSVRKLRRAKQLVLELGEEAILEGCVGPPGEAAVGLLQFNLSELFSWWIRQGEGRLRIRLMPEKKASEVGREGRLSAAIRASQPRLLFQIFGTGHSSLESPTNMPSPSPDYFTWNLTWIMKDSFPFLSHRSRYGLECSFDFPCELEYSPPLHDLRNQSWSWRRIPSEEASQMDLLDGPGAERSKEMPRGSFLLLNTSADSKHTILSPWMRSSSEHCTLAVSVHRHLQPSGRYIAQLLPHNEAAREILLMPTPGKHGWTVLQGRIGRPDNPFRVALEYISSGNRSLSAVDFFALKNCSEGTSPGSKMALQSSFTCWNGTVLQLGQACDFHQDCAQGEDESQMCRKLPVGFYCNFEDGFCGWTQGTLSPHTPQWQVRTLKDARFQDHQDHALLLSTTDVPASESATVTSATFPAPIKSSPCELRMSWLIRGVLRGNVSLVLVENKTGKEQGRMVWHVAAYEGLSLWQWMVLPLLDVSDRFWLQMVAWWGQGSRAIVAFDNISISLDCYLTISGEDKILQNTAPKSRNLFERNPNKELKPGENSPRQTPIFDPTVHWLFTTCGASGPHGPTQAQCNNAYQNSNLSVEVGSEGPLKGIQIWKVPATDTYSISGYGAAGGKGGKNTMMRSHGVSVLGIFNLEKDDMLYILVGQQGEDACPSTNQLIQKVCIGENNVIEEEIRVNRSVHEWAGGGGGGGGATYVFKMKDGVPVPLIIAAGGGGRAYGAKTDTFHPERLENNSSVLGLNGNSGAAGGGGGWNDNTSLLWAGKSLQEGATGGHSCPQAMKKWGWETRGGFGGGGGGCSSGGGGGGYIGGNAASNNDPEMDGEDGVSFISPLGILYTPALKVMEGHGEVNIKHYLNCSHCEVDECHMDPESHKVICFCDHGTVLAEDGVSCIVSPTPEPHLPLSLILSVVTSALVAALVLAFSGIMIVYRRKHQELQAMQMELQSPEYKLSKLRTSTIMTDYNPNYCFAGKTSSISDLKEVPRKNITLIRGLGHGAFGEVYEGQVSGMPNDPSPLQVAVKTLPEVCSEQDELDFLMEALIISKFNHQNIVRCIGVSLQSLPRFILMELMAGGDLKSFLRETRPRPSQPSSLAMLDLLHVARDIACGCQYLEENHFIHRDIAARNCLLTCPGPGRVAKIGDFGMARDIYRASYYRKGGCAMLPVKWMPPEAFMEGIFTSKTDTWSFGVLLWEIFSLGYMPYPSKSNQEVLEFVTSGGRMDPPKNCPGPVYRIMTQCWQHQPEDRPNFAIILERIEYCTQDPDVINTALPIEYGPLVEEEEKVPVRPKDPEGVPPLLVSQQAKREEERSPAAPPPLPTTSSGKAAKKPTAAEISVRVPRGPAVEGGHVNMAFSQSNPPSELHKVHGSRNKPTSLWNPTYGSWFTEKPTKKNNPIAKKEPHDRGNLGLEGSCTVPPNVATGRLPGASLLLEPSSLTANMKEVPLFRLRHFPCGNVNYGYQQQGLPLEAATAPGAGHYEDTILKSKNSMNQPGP
Chain of ALK [L1196M] (Q9UM73 19-1620 L1196M): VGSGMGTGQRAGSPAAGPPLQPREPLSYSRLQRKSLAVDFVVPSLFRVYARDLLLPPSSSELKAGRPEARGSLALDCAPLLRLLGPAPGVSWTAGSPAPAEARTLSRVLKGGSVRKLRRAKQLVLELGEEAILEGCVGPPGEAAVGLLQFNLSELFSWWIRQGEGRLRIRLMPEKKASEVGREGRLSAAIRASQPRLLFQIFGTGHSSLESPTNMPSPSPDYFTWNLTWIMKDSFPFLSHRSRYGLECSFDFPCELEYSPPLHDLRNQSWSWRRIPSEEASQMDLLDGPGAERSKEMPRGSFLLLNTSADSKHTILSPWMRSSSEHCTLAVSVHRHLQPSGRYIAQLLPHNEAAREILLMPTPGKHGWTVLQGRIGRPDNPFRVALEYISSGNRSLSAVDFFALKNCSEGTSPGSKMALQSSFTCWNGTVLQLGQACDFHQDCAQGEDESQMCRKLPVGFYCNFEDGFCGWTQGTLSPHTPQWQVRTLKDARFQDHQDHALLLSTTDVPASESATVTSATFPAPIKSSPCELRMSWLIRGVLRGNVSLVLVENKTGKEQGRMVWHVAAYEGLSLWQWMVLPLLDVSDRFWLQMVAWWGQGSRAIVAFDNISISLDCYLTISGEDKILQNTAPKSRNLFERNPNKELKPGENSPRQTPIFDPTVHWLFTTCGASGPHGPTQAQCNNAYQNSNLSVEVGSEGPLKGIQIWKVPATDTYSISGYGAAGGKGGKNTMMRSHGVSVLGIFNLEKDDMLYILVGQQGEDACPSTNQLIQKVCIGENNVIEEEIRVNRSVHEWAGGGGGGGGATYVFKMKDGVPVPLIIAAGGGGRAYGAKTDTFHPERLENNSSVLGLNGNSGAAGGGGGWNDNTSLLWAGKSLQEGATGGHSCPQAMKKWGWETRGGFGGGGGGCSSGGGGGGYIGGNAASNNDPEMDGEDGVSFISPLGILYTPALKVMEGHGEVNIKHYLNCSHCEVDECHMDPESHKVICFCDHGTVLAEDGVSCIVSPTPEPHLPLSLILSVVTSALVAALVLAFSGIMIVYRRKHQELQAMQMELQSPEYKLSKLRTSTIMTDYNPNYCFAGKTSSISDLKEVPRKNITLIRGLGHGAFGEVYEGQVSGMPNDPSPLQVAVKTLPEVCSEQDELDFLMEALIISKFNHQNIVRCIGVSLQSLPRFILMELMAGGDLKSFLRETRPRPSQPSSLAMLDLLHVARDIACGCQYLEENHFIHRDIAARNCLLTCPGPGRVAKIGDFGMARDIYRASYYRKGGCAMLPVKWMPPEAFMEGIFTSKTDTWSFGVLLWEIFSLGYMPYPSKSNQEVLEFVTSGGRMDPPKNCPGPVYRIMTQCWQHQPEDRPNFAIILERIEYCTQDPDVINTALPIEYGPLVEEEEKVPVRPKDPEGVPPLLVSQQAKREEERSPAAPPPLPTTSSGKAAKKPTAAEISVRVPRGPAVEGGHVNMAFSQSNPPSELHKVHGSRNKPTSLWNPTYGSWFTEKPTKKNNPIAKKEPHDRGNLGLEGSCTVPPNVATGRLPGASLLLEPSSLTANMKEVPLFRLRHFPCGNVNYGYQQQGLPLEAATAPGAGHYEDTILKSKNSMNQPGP
Chain of ALK [WT] (Q9UM73 19-1620): as the sequence (Q9UM73 19-1620 L1196M) above, with M1178L counted along it
T1 sequence (Q9UM73 whole entry, change not shown, the tested form may be a part): as the sequence (Q9UM73 whole entry L1196M, the tested form may be a part) above, with M1196L counted along it

IC50 (ALK [WT]) [nM]	IC50 (ALK [L1196M]) [nM]	microsomal CLint at 1 μM [5] [µL/min/mg]	half-life at 1 μM [5] [min]	microsomal CLint at 1 μM [6] [µL/min/mg]	half-life at 1 μM [6] [min]	SMILES	Selectivity parental/ALK (BaF3 [EML4-ALK] [1])	GI50 (BaF3 [EML4-ALK] [2]) [nM]	GI50 (ALK[L1196M] (Ba/F3) [3]) [nM]	Selectivity parental/ALK[L1196M] (ALK[L1196M] (Ba/F3) [4])	IC50 (BaF3 parental) [nM]
2 to 5	2 to 5	24.6	56.3	28.8	48.2	COc1cc(C(C)N(C)C)ccc1Nc1ncc(Cl)c(Nc2ccccc2P(C)(C)=O)n1 (centres unmarked) [Example 8, (2-((5-chloro-2-((4-(1-(dimethylamino)ethyl)-2-methoxyphenyl)amino)pyrimidin-4-yl)amino)phenyl)dimethylphosphine oxide]	100 to 200	25 to 50	100 to 200	<50	≥ 1000
2 to 5	5 to 10	23.8	58.2	7.2	194	CNCC(C)(C)c1ccc(Nc2ncc(Cl)c(Nc3ccccc3P(C)(C)=O)n2)c(OC)c1 [Example 11, (2-((5-chloro-2-((2-methoxy-4-(2-methyl-1-(methylamino)propan-2-yl)phenyl)amino)pyrimidin-4-yl)amino)phenyl)dimethylphosphine oxide]	100 to 200	25 to 50	50 to 100	50 to 100	≥ 1000
≤ 2	≤ 2	11.7	119	9.1	152	COc1cc(C(C)(C)N)ccc1Nc1ncc(Cl)c(Nc2ccccc2P(C)(C)=O)n1 [Example 13, (2-((2-((4-(2-aminopropan-2-yl)-2-methoxyphenyl)amino)-5-chloropyrimidin-4-yl)amino)phenyl)dimethylphosphine oxide]	<50	25 to 50	100 to 200	<50	≥ 1000

Further lines, the molecule ahead of its results:

SMILES	IC50 (ALK [WT]) [nM]	IC50 (ALK [L1196M]) [nM]	microsomal CLint at 1 μM [5] [µL/min/mg]	half-life at 1 μM [5] [min]	microsomal CLint at 1 μM [6] [µL/min/mg]	half-life at 1 μM [6] [min]	Selectivity parental/ALK (BaF3 [EML4-ALK] [1])	GI50 (BaF3 [EML4-ALK] [2]) [nM]	GI50 (ALK[L1196M] (Ba/F3) [3]) [nM]	Selectivity parental/ALK[L1196M] (ALK[L1196M] (Ba/F3) [4])	IC50 (BaF3 parental) [nM]
CNC(C)c1ccc(Nc2ncc(Cl)c(Nc3ccccc3P(C)(C)=O)n2)c(OC)c1 (centres unmarked) [Example 9, (2-((5-chloro-2-((4-(1-(methylamino)ethyl)-2-methoxyphenyl)amino)pyrimidin-4-yl)amino)phenyl)dimethylphosphine oxide]	2 to 5	2 to 5	11.3	123	9.9	140	50 to 100	50 to 100	200 to 1000	<50	≥ 1000
COc1cc(C(C)(C)CN)ccc1Nc1ncc(Cl)c(Nc2ccccc2P(C)(C)=O)n1 [Example 10, (2-((2-((4-(1-amino-2-methylpropan-2-yl)-2-methoxyphenyl)amino)-5-chloropyrimidin-4-yl)amino)phenyl)dimethylphosphine oxide]	2 to 5	2 to 5	25.2	55	15.1	92	100 to 200	25 to 50	100 to 200	<50	≥ 1000
COc1cc(C(C)(C)CN(C)C)ccc1Nc1ncc(Cl)c(Nc2ccccc2P(C)(C)=O)n1 [Example 12, (2-((5-chloro-2-((4-(1-(dimethylamino)-2-methylpropan-2-yl)-2-methoxyphenyl)amino)pyrimidin-4-yl)amino)phenyl)dimethylphosphine oxide]	2 to 5	5 to 10	73.5	18.9	86.8	16	100 to 200	25 to 50	50 to 100	<50	≥ 1000
COc1cc(C(C)(C)N(C)C)ccc1Nc1ncc(Cl)c(Nc2ccccc2P(C)(C)=O)n1 [Example 14, (2-((5-chloro-2-((4-(2-(dimethylamino)propan-2-yl)-2-methoxyphenyl)amino)pyrimidin-4-yl)amino)phenyl)dimethylphosphine oxide]	≤ 2	2 to 5	29.9	46.4	33.4	41.5	100 to 200	< 25	50 to 100	<50	≥ 1000

From patent US11254696B2, “Dianilinopyrimidine compound for inhibiting kinase activity” (Shenzhen Targetrx, Inc., priority 2017, dated 2022)
